Results taken from ChEMBL document CHEMBL3526061, “Glucuronidation of edaravone by human liver and kidney microsomes: biphasic kinetics and identification of UGT1A9 as the major UDP-glucuronosyltransferase isoform” (Drug Metab Dispos, 2012).

Columns and labels:
Format in all cases: ADME
[1] = target: T1, UDP-glucuronosyltransferase 1A1 (Homo sapiens, UniProt P22309); experiment: Activity of human recombinant UGT1A1 expressed in insect cells assessed as intrinsic clearance for enzyme mediated glucuronidation per mg protein by LC-MS/MS method
T1 sequence (P22309 whole entry): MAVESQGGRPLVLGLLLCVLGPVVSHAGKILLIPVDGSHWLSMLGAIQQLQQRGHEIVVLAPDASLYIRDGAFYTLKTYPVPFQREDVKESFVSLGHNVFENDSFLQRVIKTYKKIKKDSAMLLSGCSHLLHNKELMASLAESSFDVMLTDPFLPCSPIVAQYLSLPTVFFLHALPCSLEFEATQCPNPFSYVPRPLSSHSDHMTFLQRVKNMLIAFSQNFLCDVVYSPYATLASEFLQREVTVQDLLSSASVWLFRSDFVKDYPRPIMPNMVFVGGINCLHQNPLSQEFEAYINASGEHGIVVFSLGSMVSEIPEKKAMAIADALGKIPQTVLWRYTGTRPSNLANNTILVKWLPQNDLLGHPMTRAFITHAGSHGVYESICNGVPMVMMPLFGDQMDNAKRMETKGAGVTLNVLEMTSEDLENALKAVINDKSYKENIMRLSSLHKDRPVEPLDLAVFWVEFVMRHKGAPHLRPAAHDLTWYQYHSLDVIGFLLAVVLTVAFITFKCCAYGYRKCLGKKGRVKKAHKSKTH

[2] = target: T2, UDP-glucuronosyltransferase 1A9 (Homo sapiens, UniProt O60656); experiment: Activity of human recombinant UGT1A9 expressed in insect cells assessed as enzyme mediated glucuronidation by LC-MS/MS method
T2 sequence (O60656 whole entry): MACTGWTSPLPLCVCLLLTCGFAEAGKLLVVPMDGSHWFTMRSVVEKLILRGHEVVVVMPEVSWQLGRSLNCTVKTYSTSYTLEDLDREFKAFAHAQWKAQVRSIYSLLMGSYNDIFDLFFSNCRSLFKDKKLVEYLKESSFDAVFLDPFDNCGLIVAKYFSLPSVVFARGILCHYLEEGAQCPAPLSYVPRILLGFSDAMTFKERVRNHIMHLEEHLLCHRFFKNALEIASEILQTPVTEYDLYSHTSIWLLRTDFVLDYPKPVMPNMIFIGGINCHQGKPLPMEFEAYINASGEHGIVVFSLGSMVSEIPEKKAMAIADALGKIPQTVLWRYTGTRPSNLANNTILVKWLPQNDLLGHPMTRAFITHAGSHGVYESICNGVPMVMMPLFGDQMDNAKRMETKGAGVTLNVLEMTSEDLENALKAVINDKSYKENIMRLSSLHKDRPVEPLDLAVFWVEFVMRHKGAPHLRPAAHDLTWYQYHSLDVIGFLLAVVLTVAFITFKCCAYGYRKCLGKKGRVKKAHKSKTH

[3] = target: T3, UDP-glucuronosyltransferase 2B7 (Homo sapiens, UniProt P16662); experiment: Activity of human recombinant UGT2B7 expressed in insect cells assessed as intrinsic clearance for enzyme mediated glucuronidation per mg protein by LC-MS/MS method
T3 sequence (P16662 whole entry): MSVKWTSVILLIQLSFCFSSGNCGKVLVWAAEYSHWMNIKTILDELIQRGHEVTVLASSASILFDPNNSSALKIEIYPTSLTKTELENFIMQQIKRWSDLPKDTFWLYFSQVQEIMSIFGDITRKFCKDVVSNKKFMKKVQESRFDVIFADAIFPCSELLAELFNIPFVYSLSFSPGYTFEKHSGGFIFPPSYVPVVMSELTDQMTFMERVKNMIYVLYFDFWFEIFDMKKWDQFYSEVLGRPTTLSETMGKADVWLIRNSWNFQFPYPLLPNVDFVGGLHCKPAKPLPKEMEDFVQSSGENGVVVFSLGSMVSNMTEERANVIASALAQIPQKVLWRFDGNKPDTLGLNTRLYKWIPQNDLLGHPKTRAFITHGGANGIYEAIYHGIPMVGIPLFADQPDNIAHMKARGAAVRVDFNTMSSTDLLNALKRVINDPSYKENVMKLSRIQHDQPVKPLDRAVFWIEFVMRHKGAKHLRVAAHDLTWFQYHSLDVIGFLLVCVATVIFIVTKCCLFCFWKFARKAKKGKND

[4] = Drug metabolism in human kidney microsomes assessed as drug glucuronidation in presence of […] naloxone by LC-MS/MS method
[5] = Drug metabolism in human kidney microsomes assessed as drug glucuronidation per mg tissue in absence of BSA by LC-MS/MS method
[6] = target: T4, UDP-glucuronosyltransferase 2B15 (Homo sapiens, UniProt P54855); experiment: Activity of human recombinant UGT2B15 expressed in insect cells assessed as enzyme mediated glucuronidation at 500 uM by LC-MS/MS method
T4 sequence (P54855 whole entry): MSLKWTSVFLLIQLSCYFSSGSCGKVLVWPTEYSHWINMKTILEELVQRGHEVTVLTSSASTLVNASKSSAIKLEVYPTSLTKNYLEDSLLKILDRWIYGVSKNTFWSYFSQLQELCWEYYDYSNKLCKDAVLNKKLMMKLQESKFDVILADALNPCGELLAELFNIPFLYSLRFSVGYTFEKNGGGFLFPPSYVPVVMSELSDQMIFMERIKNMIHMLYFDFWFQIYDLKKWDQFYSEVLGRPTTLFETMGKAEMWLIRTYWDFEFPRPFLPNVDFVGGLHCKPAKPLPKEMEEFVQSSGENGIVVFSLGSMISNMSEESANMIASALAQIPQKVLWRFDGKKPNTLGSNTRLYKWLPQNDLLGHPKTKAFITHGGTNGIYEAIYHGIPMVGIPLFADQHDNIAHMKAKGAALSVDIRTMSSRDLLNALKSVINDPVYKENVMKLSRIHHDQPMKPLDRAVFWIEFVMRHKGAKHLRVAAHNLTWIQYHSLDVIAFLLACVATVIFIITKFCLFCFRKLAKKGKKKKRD

CL(high) [1]: 0.2 µL/min/mg
KmH [2]: 6 µM
KmL [2]: 419.4 µM
CL [3]: 0.7 µL/min/g
Drug metabolism [4]: metabolite_detected
VmaxH [5]: 336.5 pmol/min/g
VmaxL [5]: 2396 pmol/min/g
Drug metabolism [6]: metabolite_detected
SMILES: CC1=NN(c2ccccc2)C(=O)C1 [EDARAVONE]
